Results as given in patent publication US6482841B1, “Pyridyl compounds and pharmaceutical compositions containing them” (Cermol S.A., priority 1997, dated 2002).

Experiments:
[1] = test system: isolated guinea-pig ventricular myocytes; assay: Protection of isolated ventricular myocytes from hypercontracture obtained by incubation under N2 atmosphere; type: cell-based; conditions: 30 nM, with reference to vehicle-treated cells
Procedure: (§1) Isolated guinea-pig ventricular myocytes were obtained following the method described by Powell et al. (J. Physiol., 1980, 102: 131) as modified by Levi et al. (J. Physiol., 1990, 425:9P). Cell hypercontracture and death was obtained either by incubation under N2 atmosphere or by incubation with veratridine which induced important changes in the ionic homeostase of cardiomyocytes (Hiroko Hashizume et al., European Journal of Pharmacology, […], 271: 1-8). Results expressed as percentage of cells protected from hypercontracture i.e. maintaining its rod-shaped morphology with reference to vehicle-treated cells are given in the tables I and II hereafter.

[2] = test system: isolated guinea-pig ventricular myocytes; assay: Protection of isolated ventricular myocytes from hypercontracture obtained by incubation with veratridine; type: cell-based; conditions: 1 μM, with reference to vehicle-treated cells
Procedure: as §1

anaesthetised rats = assay: In vivo cardioprotective effect: coronary occlusion and reperfusion in anaesthetised rats; design: species or system rat; conditions: 2 × 20 mg/kg orally (one day and one hour before the experiment)
Description: Cardiac death and arrhythmias were induced by the coronary occlusion and reperfusion method in anaesthetised rats according to the method of Seyle et al. (Angiology, 1960, 11, 398-407) modified by Krzeminski T. (“proceedings of 7th Freiburg Focus of Biomeasurement”, Strasbourg, 16-19 September 1991) Cardiovascular and Respiratory in vivo Studies, Biomesstechnik, Verlag March GmbH, Germany) and according to the LAMBETH conventions (Walker M. J. A. et al., Cardiovasc Re., […], 22, 447-455). The products have been administered orally (one day and one hour before the experiment). They are given in percentage of protection against the mortality and the arrhythmias (ventricular fibrillations).

[3] = test system: guinea-pig ventricular cardiomyocytes action potential; assay: Action potential of ventricular cardiomyocytes in the presence of veratridine (patch clamp); type: cell-based
Procedure: (§2) In order to confirm the cardioprotection, the activity of one of the most interesting compound (example 31 according to the invention) was tested on guinea-pig ventricular cardiomyocytes action potential (AP) in the presence of veratridine or in anoxic condition. The action potential (AP) time courses of guinea-pig ventricular cardiomyocytes treated with veratridine or made anoxic by incubation under N2 atmosphere were measured (patch clamp technique) in absence and presence of the compound of example 31 according to the invention. […] In anoxic conditions, there is a shortening of cardiomyocyte action potential duration related mainly with an activation of K+-ATP dependent current.

[4] = test system: guinea-pig ventricular cardiomyocytes action potential; assay: Action potential of ventricular cardiomyocytes in anoxic condition under N2 atmosphere (patch clamp); type: cell-based; conditions: 100-300 nM
Procedure: as §2

Compound | melting point [°C] | % Protection (cells protected from hypercontracture) [1] [%] | % Protection (cells protected from hypercontracture) [2] [%] | % PROTECTION AGAINST DEATH (anaesthetised rats) [%] | % PROTECTION AGAINST VENTRICULAR FIBRILLATIONS (anaesthetised rats) [%] | Prolongation of cardiomyocyte action potential duration induced by veratridine ([3]; 100-300 nM, veratridine) | Influence on the normal action potential ([3]; normal action potential) | Shortening of cardiomyocyte action potential duration in anoxic conditions (K+-ATP dependent current) [4]
Cc1nc(C)c(C(=O)OCC2CCCO2)c(-c2cccc([N+](=O)[O-])c2)c1C(=O)OCC1CCCO1.Cl (centres unmarked) | 75 to 77 | – | – | – | – | – | – | –
COC(=O)c1c(C)nc(C)c(C(=O)OCC2CCCO2)c1-c1cccc(NC(C)=O)c1.Cl (centres unmarked) | 196 to 198 | – | – | – | – | – | – | –
COC(=O)c1c(C)nc(C)c(C(=O)OCC2CCCO2)c1-c1cccc(O)c1.Cl (centres unmarked) | 95 to 97 | – | – | – | – | – | – | –
COC(=O)c1c(C)nc(C)c(C(=O)OCC2CCCO2)c1-c1cccc(F)c1 (centres unmarked) [Example 3, 2,6-Dimethyl-4-(3-fluorophenyl) pyridine-3,5-dicarboxylic acid 3-methyl ester 5-(tetrahydrofuran-2-ylmethyl) ester] | 66 to 68 | – | – | – | – | – | – | –
COC(=O)c1c(C)nc(C)c(C(=O)OCC2CCCO2)c1-c1ccccc1[N+](=O)[O-] (centres unmarked) [Example 12, 2,6-Dimethyl-4-(2-nitrophenyl) pyridine-3,5-dicarboxylic acid 3-methyl ester 5-(tetrahydrofuran-2-ylmethyl) ester] | – | 80 | 57 | 100 | 100 | – | – | –
COC(=O)c1c(C)nc(C)c(C(=O)OCC2CCC(=O)O2)c1-c1ccccc1[N+](=O)[O-] (centres unmarked) [Example 15, 2,6-Dimethyl-4-(2-nitrophenyl) pyridine-3,5-dicarboxylic acid 3-methyl ester 5-(5-oxotetrahydrofuran-2-ylmethyl)ester] | 132 to 134 | – | – | – | – | – | – | –
COCCOC(=O)c1c(C)nc(C)c(C(=O)OC(C)C)c1-c1cccc([N+](=O)[O-])c1 [Example 22, 2,6-Dimethyl-4-(3-nitrophenyl)-pyridine-3,5-dicarboxylic acid 3-isopropyl ester 5-(2-methoxyethyl) ester] | – | 63 | 37.5 | 100 | 50 | – | – | –
COC(=O)c1c(C)nc(C)c(C(=O)OCC(C)C)c1-c1ccccc1[N+](=O)[O-] [Example 23, 2,6-Dimethyl-4-(2-nitrophenyl)-pyridine-3,5-dicarboxylic acid 3-methyl ester 5-isobutyl ester] | – | 50 | 41.3 | 100 | 75 | – | – | –
CCOC(=O)c1c(C)nc(C)c(C(=O)OC)c1-c1cccc([N+](=O)[O-])c1 [Example 24, 2,6-Dimethyl-4-(3-nitrophenyl)pyridine-3,5-dicarboxylic acid 3-ethyl 5-methyl ester] | – | 60 | 37.5 | 100 | 37.5 | – | – | –
COC(=O)c1c(C)nc(C)c(C(=O)OC)c1-c1ccccc1[N+](=O)[O-] [Example 25, 2,6-Dimethyl-4-(2-nitrophenyl) pyridine-3,5-dicarboxylic acid dimethyl ester] | – | 50 | 34 | 100 | 50 | – | – | –
COC(=O)c1c(C)nc(C)c(C(=O)O)c1-c1ccccc1[N+](=O)[O-] [Example 31, 2,6-Dimethyl-4-(2-nitrophenyl) pyridine-3,5-dicarboxylic acid 3-methyl ester] | – | 58 | 64 | 85.7 | 73.4 | prevents | does not influence significantly | inhibited dose-dependently and strongly
